Results on 64 compounds are retold here after PubChem BioAssay AID2305 (GlaxoSmithKline (GSK), 2010).

Several values for one entry are separate records, joined by “and”; a condition that tells them apart may be missing. Equal entries are not always repeated.

The test system of the test is P. falciparum 3D7 growth, pLDH absorbance. Briefly: blood-stage malaria parasite growth potency – strain 3D7, dose response (AID 2305).
`O=S(=O)(c1ccccc1)n1ccc2cc(Nc3ncnc4cc(C#C[C@H]5CCCN5)sc34)ccc21` returned an IC50 of 1.07 µM.
Then `CC(Cc1ccc(SCCSc2ccccc2)cc1)NCC(O)c1cccc(Cl)c1` (centres undefined), with 0.37 µM.
The same measure for `Oc1cc2c(cc1CN1CCN(Cc3ccc(Cl)s3)CC1)CCC2`: 0.62 µM; for `Cc1cc(O)cc2c(C3CCN(CC4CCC(NC(=O)/C=C/c5ccccc5Cl)CC4)CC3)c[nH]c12` (centres undefined): 0.9 µM; for `CS(=O)(=O)Nc1ccc(-c2ccc3ccnc(N)c3c2)cc1`: 0.61 µM.
The compound `Cc1cc(NCCC(=O)Nc2ccccc2)nc(NCCc2ccccc2)n1` showed an IC50 of 0.85 µM.
Consider `CCCc1ccc(Cc2cnc3nc(N)nc(N)c3c2C)cc1`, for which the IC50 is 0.28 µM.
Regarding `Cn1c(Nc2cc(C(C)(C)C)on2)nc2cc(Nc3ccnc(Nc4ccc(CS(C)(=O)=O)cc4)n3)ccc21`, the IC50 was 0.98 µM.
As for `Cc1nccn1Cc1cc(C(C)(C)C)c(O)c(C(C)(C)C)c1`, the IC50 turned out to be 0.79 µM.
The compound `CCC1=C(C[C@H]2NCCc3cc(OC)c(OC)cc32)C[C@H]2c3cc(OC)c(OC)cc3CCN2C1` yielded a concentration for half-maximal inhibition (IC50) of 0.31 µM.
Then `CC(CN(C)C)C(=O)Nc1cccc(-c2ccc(-c3nc4ccccc4[nH]3)s2)c1` (centres undefined), with 0.74 µM.
Consider `Cc1cccc(C)c1CNc1nc(N2CCOCC2)cc2c(C)c(C)[nH]c12`, for which the 50% inhibitory concentration (IC50) stood at 1.24 µM.
The same measure for `COc1ccc(CCN(C)CCCN2CCC(NC(=O)c3cccc4c(=O)c5ccccc5[nH]c34)CC2)cc1OC`: 0.69 µM; for `COc1ccc2nc(C)cc(Nc3ccc(Cl)cc3)c2c1`: 0.95 µM; for `COc1ccc2nccc(NC(=O)N3CCC(NCCOc4cc(F)cc(F)c4)CC3)c2n1`: 0.77 µM.
Then `c1ccc2[nH]c(CN(Cc3nc4ccccc4[nH]3)Cc3nc4ccccc4[nH]3)nc2c1`, with 0.67 µM; and `CN1CCN(Cc2ccc(-c3cc4nccc(Nc5ccc(Oc6ccccc6)cc5)c4cc3Cl)o2)CC1`, with 0.98 µM.
The same measure for `Cc1nc(N)nc(N)c1-c1ccc(Cl)c(Cl)c1`: 0.08 µM; for `CCN(CC)CCn1c2ccccc2c2ccc(C(=O)Nc3ccc4sc(C)nc4c3)cc21`: 1.06 µM.
Turning to `Cc1cccc2[nH]c(-c3ccc(-c4cccc(NC(=O)CN5CCN(C)CC5)c4)s3)nc12`, the IC50 is 0.83 µM. The IC50 values of the last two compounds are within 1.5-fold of each other.
The same measure for `Cc1csc(NC2=NCCN2)n1`: 0.47 µM; for `Cc1cc(-c2ccc(Cl)cc2)c2c(N)c(C(=O)Nc3ccc(F)cc3)sc2n1`: 0.82 µM.
Then `CN1CCC(c2ccc(NC(=O)c3ccc(-c4cccc(C(F)(F)F)c4)o3)cc2)CC1`, with 1.13 µM.
The same measure for `CC(C)C(C)(C#N)NC(=O)CSc1nc2ccc([N+](=O)[O-])cc2s1` (centres undefined): 1.03 µM; for `COc1ccc2nccc([C@@H](O)CN3CCC(NCc4cc5ccccc5cn4)CC3)c2n1`: 0.92 µM; for `Cc1cc(N2CCCC2=O)ccc1-c1ccc(C(=O)N2CCC(Oc3cccc(Cl)c3)CC2)cc1`: 0.43 µM.
Turning to `COCCN1CCC(CNCC(C)(C)c2nc(-c3ccc(Cl)c(O)c3)c(-c3ccncc3)[nH]2)CC1`, the IC50 amounted to 0.75 µM. Against the preceding compound, the IC50 is about 1.7-fold higher.
Then `Cc1cc(Nc2ccc3ccccc3c2)n2ncnc2n1`, with 0.17 µM; and `COc1ccc2nccc(NC(=O)N3CCC(NCc4cc5ccccc5[nH]4)CC3)c2n1`, with 0.56 µM.
Then `O=C(c1cc(C(=O)Nc2ccc(F)cc2)c(=O)n(-c2ccc(F)cc2)c1)c1cc(Cl)ccc1O`, with 0.22 µM; and `O=C(/C=C/c1ccc(Cl)c(Cl)c1)NCCCCCN1CCC(CCNC(=O)c2snnc2-c2ccccc2)CC1`, with 0.82 µM; and `C=CCOC(=O)N1CCC(CNCc2cccc(-c3ccc(-c4nc5ccccc5[nH]4)s3)c2)C1` (centres undefined), with 0.27 µM.
Then `Cc1cc(-c2ccc(CNC3CCN(C)CC3)cc2)ccc1S(=O)(=O)NCc1ccccc1`, with 0.85 µM; and `COc1cc(CN2CCC(CO)(Cc3cccc(C(F)(F)F)c3)CC2)c(Cl)cc1O`, with 0.9 µM; and `N#Cc1ccc(-c2nc3c(N4CCCC4)cccc3n2CCNCc2ccccc2)cc1`, with 0.59 µM.
Regarding `CC(OC(=O)c1ccc(C(=O)NCC2CC2)cc1)C(C)(C)C` (centres undefined), the IC50 is 0.79 µM.
`COc1ccc2nc3cc(Cl)ccc3c(Nc3ccc(Oc4ccc(Nc5c6ccc(Cl)cc6nc6ccc(OC)cc56)cc4)cc3)c2c1` yielded a half-maximal inhibitory concentration (IC50) of 0.86 µM.
Compound `CC[C@H]1CN2CC[C@@H]1C[C@H]2[C@H](O)c1cc(-c2ccc(Cl)c(Cl)c2)nc2ccc(O)cc12` came in with an IC50 of 0.26 µM.
Then `Cc1c(C(=O)N2CCCC(C(F)(F)F)C2)sc2cccc(F)c12` (centres undefined), with 0.6 µM; and `COc1ccc2nc(C)cc(NN=Cc3ccccc3F)c2c1`, with 0.37 µM; and `CC(C)c1sc(N2CCN(C)CC2)nc1C(=O)NCCc1ccc(Cl)c(Cl)c1`, with 1.05 µM.
Then `Oc1ccc(CCNc2nc(NCc3ccccc3-c3ccc(C(F)(F)F)cc3)nc(NC3CCNCC3)n2)cc1`, with 0.92 µM; and `Cc1cc2nc(-c3ccc(/C=C/C(=O)NC4CCCCC4)cc3)[nH]c2cc1C`, with 1.01 µM; and `COc1ccc(CNCCc2cccs2)cc1-c1ccc(S(=O)(=O)NCCN2CCCC2)s1`, with 0.88 µM.
Then `Cc1ccc(C2CC(c3cccs3)=NN2C(=O)c2ccc(Br)o2)cc1` (centres undefined), with 0.89 µM; and `Cc1ccc(CN(Cc2ccc(C(=O)N(C)C)cc2)Cc2ccc3c(c2)OCCO3)cc1C`, with 0.8 µM; and `COCCCNC(=S)NN=C(C)c1ccccn1`, with 0.3 µM.
As to `O=C(/C=C/c1ccc(Cl)c(Cl)c1)NC1CCC(CN2CCC(c3c[nH]c4ccc(O)cc34)CC2)CC1` (centres undefined), the IC50 is 0.14 µM and 0.42 µM.
The same measure for `CCCC(=O)c1cnc2c(OCCCc3cnc[nH]3)cccc2c1Nc1c(C)cccc1C`: 0.34 µM.
Then `CCCOc1ccc(C=C(CC(=O)O)c2nc3ccccc3s2)cc1OCC`, with 0.55 µM; and `COc1ccc(-c2nc3nc4ccccc4cc3[nH]2)c(OCC(O)CNC(C)C)c1` (centres undefined), with 0.69 µM; and `CC(C)NCc1cccc(-c2ccc(-c3nc4ccccc4[nH]3)cc2)c1`, with 0.76 µM.
Then `COc1ccccc1CCNc1ncnc2c1[nH]c1ccc(F)cc12`, with 0.84 µM.
`O=C(Nc1ccc(Cl)c(Cl)c1)Nc1ccc2nccc(N3CCNCC3)c2c1` showed a concentration for half-maximal inhibition (IC50) of 0.26 µM.
Then `CCOc1cc2ccccc2cc1CNCCCCCCNCc1cc2ccccc2cc1OCC`, with 0.98 µM.
The same measure for `CC(C)c1ccc(C=CC(=O)N2CCC(CCN3CCC(c4c[nH]c5ccccc45)CC3)CC2)cc1`: 1.26 µM; for `O=C(Nc1ccc(Cl)cc1Cl)N[C@H]1CCN(CCCCCNC(=O)[C@@H]2C[C@H]2c2ccc(Cl)c(Cl)c2)C1`: 0.99 µM; for `Cc1cc(C)c(NC(=O)N[C@H]2CCN(CCCCCNC(=O)/C=C/c3ccc(Cl)c(Cl)c3)C2)c(C)c1`: 0.95 µM.
The same measure for `CN(C)c1cc2c(Nc3ccc4nc(Cc5ccccc5)[nH]c4c3)ncnc2cn1`: 1.14 µM; for `N#Cc1cccc(C(=O)Nc2ccc(-c3cccc(CN4CCCC4)c3)cc2)c1`: 0.71 µM.
`Cc1cc(=O)[nH]c(/N=C(/N)NOCc2ccccc2)n1` yielded an IC50 of 0.42 µM.
On to `COC(=O)c1cccc(CNCc2cccc(-c3ccc(-c4nc5c(C)cccc5[nH]4)cc3)c2)c1`, for which the half-inhibitory concentration (IC50) worked out at 0.32 µM. The IC50 values of the last two compounds are within 1.5-fold of each other.
Then `CN(CCN1CCC(c2c[nH]c3ccccc23)CC1)C(=O)OCCCCCNC(=O)/C=C/c1ccc(Cl)c(Cl)c1`, with 0.68 µM.
Then `CN1CCC(NCc2cccc(-c3ccc(S(=O)(=O)NCCc4ccccn4)cc3)c2)CC1`, with 0.83 µM.

The IC50 is the concentration that inhibits the measured activity by half. Higher therefore signals weaker potency.
